Laboratory results as given in publication PMC1764434 (PLoS Clinical Trials, 2007).
Entries after “also recorded” stand apart in the source; their conditions may differ. Like-named read-outs stand apart in the source and are kept apart here.

Tests used:
healthy volunteers [1] = test: Post-dose clinical and laboratory follow-up (hematology, chemistry, organ toxicity); format: in vivo, human
[2] = Urinary excretion and renal clearance (24-hour urine collections, days 1-3)
[3] = tested on: CQ-resistant P. falciparum; details: CQ-resistant P. falciparum in the squirrel monkey; cited from earlier work
[4] = cited from earlier work
healthy volunteers [5] = test: Clinical adverse events (weekly diaries, blinded relatedness assessment), Phase I RCT; format: in vivo, human
Method: Adverse events (AEs) were recorded in weekly diaries provided to each volunteer. The relatedness of these AEs to the study drugs was assessed by two physicians (FM, CH) based on temporal association and biological plausibility using five categories: definitely not, unlikely, possibly, probably, and definitely related. The AEs reported in this manuscript include all AEs assessed as possibly, probably, or definitely related.
Quantitative data are presented as the mean ± standard deviation or as median and range, as appropriate. […] Due to a lack of normality, the nonparametric Mann-Whitney U test was used to compare independent samples; the Wilcoxon or Friedman test (whichever was appropriate) was used to compare repeated measures of the QTc interval. All statistical tests were two-sided with an α (significance level) of 0.05. Analyses were performed using the SPSS 11.0 statistical software (SPSS, Chicago, Illinois, United States). All analyses were based on allocation by intent-to-treat.

animals = details: preclinical studies; cited from earlier work
P. cynomolgi = details: cited from earlier work
[6] = Blood pharmacokinetics after oral dosing (fluorescence HPLC, noncompartmental WinNonlin model); format: in vivo, human; details: for Cmax / Vd/F / MRT / Tmax / half-life / AUC: human, whole blood; for Cmax: read-out: Cmax; for MRT: read-out: MRT (converted); for AUC: po
Method: Study drugs were administered in the GCRC on an empty stomach between 8 and 9 AM the morning after admission (after fasting for ≥ 10 h).

QT interval = test: Effects on the QT interval (ECG and Holter recordings, Bazett correction); details: for QTc interval, Baseline: before dosing
Method: The effects of the study drugs on the QT interval were assessed by comparing QT intervals before dosing with QT intervals 4 h after dosing, and at the 2 wk follow-up. […] QT intervals were measured manually and electronically (Rozinn Electronics, Glendale, New York, United States). […] Correction of the QT interval for heart rate (i.e., QTc) was performed using Bazett's formula [27].

[7] = tested on: CQ-resistant P. falciparum; details: cited from earlier work
[8] = 2 wk follow-up, individual participant
[9] = days 1-3, 1,750 mg AQ-13 / 1,500 mg CQ
[10] = 1,500 mg CQ (n = 15) / 1,750 mg AQ-13 (n = 14)
[11] = 100, 300 mg doses, n = 16 per drug
[12] = 600/700 mg, AQ-13 n = 25, CQ n = 24
[13] = all doses combined, 63 volunteers per drug
[14] = 1750 mg, 1,750 mg oral over 3 d, median (range)
[15] = single oral 600 mg dose, median (range)
[16] = single oral 700 mg adjustment dose, median (range)
[17] = 1,750 mg AQ-13, 1,500 mg CQ, mean ± SD
[18] = 600/700 mg AQ-13, 600 mg CQ, mean ± SD

CCN(CC)CCCNc1ccnc2cc(Cl)ccc12 [AQ-13]
ALT in one participant with abnormal liver function tests (healthy volunteers [1]; [8]): 149 | AST in one participant with abnormal liver function tests (healthy volunteers [1]; [8]): 135 U/l | alkaline phosphatase in one participant with abnormal liver function tests (healthy volunteers [1]; [8]): 146 | bilirubin in one participant with abnormal liver function test (healthy volunteers [1]; [8]): 1.5 mg/dL | volunteers with mildly abnormal liver function tests (healthy volunteers [1]; 2 wk follow-up, AQ-13 100 and 300 mg doses, CQ 1,500 mg dose): two | hematologic or chemical toxicities on repeat laboratory testing (healthy volunteers [1]; 4 d after drug administration): no hematologic or chemical toxicities | organ toxicity (healthy volunteers [1]; any dose tested, inpatient exams, 2 and 4 wk follow-up): No hematologic, hepatic, renal, or other organ toxicity was observed; also recorded: no clinical evidence for end-organ toxicity | amount of unchanged drug recovered from 24 hour urine collections [2, 9]: 443 µmol | unchanged drug recovered from 24 hour urine collections, % of total oral dose [2, 9]: 8.4% | CL renal ([2]; human, urine and whole blood, po, 1750 mg): 55 mL/min | activity in vivo in monkey model [3]: active in vivo | clearance in preclinical studies in comparison with CQ [4]: cleared more rapidly than CQ | oral bioavailability in comparison with CQ ([4]; rats and monkeys, GLP preclinical studies by SRI International): less than that of CQ | related adverse events: None (healthy volunteers [5]; 10 mg dose, n = 8 per drug): 0 | Abdominal pain, number (%) (healthy volunteers [5]; [10]): 1 (7%) | Blurred vision, number (%) (healthy volunteers [5]; [10]): 2 (14%) | Diarrhea, number (%) (healthy volunteers [5]; [10]): 4 (29%) | Difficulty focusing/visual floating objects, number (%) (healthy volunteers [5]; [10]): 2 (14%) | Lightheadedness/Dizziness, number (%) (healthy volunteers [5]; [10]): 7 (50%) | Nausea, number (%) (healthy volunteers [5]; [10]): 5 (36%) | Vomiting, number (%) (healthy volunteers [5]; [10]): 2 (14%) | Weakness/fatigue, number (%) (healthy volunteers [5]; [10]): 2 (14%) | Headache, number (%) (healthy volunteers [5]; 1,500 mg CQ (n = 15) / 1,750 mg AQ-13 (n = 14) over 3 d): 5 (36%) | Headache, volunteers with related AE, number (%) (healthy volunteers [5]; [11]): 2 (12%) | Lightheadedness/Dizziness, number (%) (healthy volunteers [5]; [11]): 0 | Nausea, number (%) (healthy volunteers [5]; [11]): 1 (6%) | Abdominal pain, number (%) (healthy volunteers [5]; [12]): 2 (8%) | Diarrhea, number (%) (healthy volunteers [5]; [12]): 2 (8%) | Ear symptoms, number (%) (healthy volunteers [5]; [12]): 0 | Headache, number (%) (healthy volunteers [5]; [12]): 10 (40%) | Lightheadedness/Dizziness, number (%) (healthy volunteers [5]; [12]): 4 (16%) | Loss of appetite, number (%) (healthy volunteers [5]; [12]): 3 (12%) | Nausea, number (%) (healthy volunteers [5]; [12]): 2 (8%) | Vomiting, number (%) (healthy volunteers [5]; [12]): 2 (8%) | drug-related GI symptoms, number of reports (healthy volunteers [5]; all doses combined): 28 reports | drug-related lightheadedness/dizziness, volunteers/total (healthy volunteers [5]; [13]): 11/63 | volunteers reporting one or more GI symptoms/total (healthy volunteers [5]; [13]): 14/63 | toxicity in animals in comparison with CQ (animals): no differences in toxicity | activity in vivo in monkey model (P. cynomolgi; P. cynomolgi in the rhesus monkey): active in vivo | activity in monkey models of human malaria compared with AQ-21 (P. cynomolgi; both monkey models, ref Cogswell, et al., unpublished data): more active | blood level one hour after dosing as % of Cmax ([6]; 600 mg oral dose): 52% | Cl/F ([6]; 1,750 mg oral over 3 d, median (range)): 14.0 (6.8–20.3) l/h | median oral clearance (range of medians across dose levels) ([6]; 600 and 1,500/1,750 mg doses): 14.0 to 14.7 L/h | Cmax ([6]; 1750 mg, 1,750 mg oral over 3 d (700+700+350 mg), median (range)): 3000 nM | Vd/F [6, 14]: 6660 L | MRT [6, 14]: 13.4 days | Tmax ([6]; 1750 mg, 1,750 mg oral over 3 d, median (range), read-out: Tmax): 1.14 days | half-life ([6]; 1750 mg, 1,750 mg oral over 3 d, median (range), read-out: t½ (converted)): 12.9 days | Tmax ([6]; oral, 1,750 mg AQ-13 / 1,500 mg CQ, 27–28 h after the first dose, read-out: time of peak blood concentration after the second dose): 0.125 to 0.167 days | AUC ([6]; 600 mg, single oral 600 mg dose, median (range), read-out: AUCw1 (partial AUC for week 1)): 71.8 µM·h | AUC ([6]; 600 mg, single oral 600 mg dose, median (range), read-out: AUCτ (total area under the curve)): 141 µM·h | AUC ([6]; 700 mg, single oral 700 mg adjustment dose, median (range), read-out: AUCw1): 96.3 µM·h | AUC ([6]; 700 mg, single oral 700 mg adjustment dose, median (range), read-out: AUCτ): 342 µM·h | AUC ([6]; 1750 mg, 1,750 mg oral over 3 d, median (range), read-out: AUCw1): 226 µM·h | AUC ([6]; 1750 mg, 1,750 mg oral over 3 d, median (range), read-out: AUCτ): 493 µM·h | Vd/F [6, 15]: 6710 L | Vd/F [6, 16]: 6830 L | MRT [6, 16]: 23.5 days | Tmax ([6]; single oral 700 mg adjustment dose, median (range), read-out: Tmax): 0.167 days | half-life ([6]; single oral 700 mg adjustment dose, median (range), read-out: t½ (converted)): 17.9 days | Cmax ([6]; single oral 600 mg dose (CQ base equivalent), median (range)): 1400 nM | MRT [6, 15]: 10.5 days | Tmax ([6]; single oral 600 mg dose, median (range), read-out: Tmax): 0.167 days | half-life ([6]; single oral 600 mg dose, median (range), read-out: t½ (terminal elimination half-life) (converted)): 14.3 days | Cmax [6, 16]: 1600 nM | linearity of pharmacokinetics ([6]; oral doses in healthy volunteers): linear pharmacokinetics | Cl/F (apparent oral clearance) [6, 15]: 14.7 (7.0–31.1) l/h | Cl/F [6, 16]: 11.8 (8.5–19.1) l/h | mean QTc prolongation after the first dose (day 1) (QT interval; 1,500 mg CQ (first 600 mg dose) / 1,750 mg AQ-13 (first 700 mg dose)): 4 ms | additional QTc increase after the second dose (day 2) (QT interval; 1,500 mg CQ / 1,750 mg AQ-13): 6 ms | QTc interval, Baseline (QT interval; 1,750 mg AQ-13 (n = 13), 1,500 mg CQ (n = 14), mean ± SD): 397 ± 16 ms | QTc interval, 2 wk follow-up (QT interval; [17]): 402 ± 13 ms | QTc interval, 4–5 h post-dose (day 1) (QT interval; [17]): 401 ± 14 ms | QTc interval, 4–5 h post-dose (day 2) (QT interval; [17]): 407 ± 11 ms | QTc interval, 4–5 h post-dose (day 3) (QT interval; [17]): 400 ± 11 ms | mean QTc prolongation, females (QT interval; 1,750 mg AQ-13 / 1,500 mg CQ): 12 ms | mean increase in the QTc interval from baseline (QT interval; 1,750 mg AQ-13 / 1,500 mg CQ, 4 h after the second dose on day 2): 10 ms | QTc interval, Baseline (QT interval; 600/700 mg AQ-13 (n = 25), 600 mg CQ (n = 24), mean ± SD): 403 ± 17 ms | QTc interval, 2 wk follow-up (QT interval; [18]): 405 ± 18 ms | QTc interval, 4–5 h post-dose (day 1) (QT interval; [18]): 414 ± 17 ms | maximal prolongation of the QTc interval from baseline at the individual level (QT interval; 600/700 mg dose): 42 ms | maximal prolongation of the QTc interval from baseline at the individual level (QT interval; 1,500/1,750 mg dose): 35 ms | mean increase in the QTc interval from baseline, females (QT interval; 4 h after 600 mg CQ or 600/700 mg AQ-13): 18 ms | mean QTc interval change from baseline, males (QT interval; 4 h after 600 mg CQ or 600/700 mg AQ-13, not significant): 1 ms | mean increase in the QTc interval from baseline (QT interval; 4 h after 600 mg CQ or 600 or 700 mg AQ-13): 11 ms | arrhythmias or other cardiac AEs (QT interval; all doses): no arrhythmias or other cardiac AEs; also recorded: no cardiac AEs | activity against resistant malaria parasites in vitro [7]: active against resistant malaria parasites
